Patent US10287265B2, “Enantiomers of 8-hydroxyquinoline derivatives and the synthesis thereof” (AVIDIN Co. Ltd., priority 2015, dated 2019)
“Also recorded” adds a separate entry of the source.

How the values were obtained:
[1] = system: C57BL6/J mice; experiment: Scopolamine-induced short-term memory impairment, Y maze test; assay type: in vivo, mouse; conditions: per os gavage; scopolamine 0.6 mg/kg i.p. 30 min prior to Y maze test
Description: In vivo experiments were carried out according to the National Institute of Health guidelines for the care and use of laboratory animals, approved by the French Ministry for Research and Technology. In the course of experiments, animals were housed at a standard temperature (22±1° C.) and in a light-controlled environment (lights on from 7 a.m. to 8 p.m.) with ad libitum access to food and water. Male C57BL/6 mice (C57BL/6J Rj, ref. SC-CJ-12w-M, Janvier, France) were housed 5 animals per cage. From one week before the start of the experiment until the end of the experiment, mice were housed individually. Animals were monitored twice-a-day by laboratory personnel (8 a.m. and 4 p.m.). In this project, young (14 weeks old) as well as aged (15-16 months old) mice were used. Experiments were carried out using 12 mice per experimental group.
Investigation of short-term working memory—Y maze test Y maze tests were carried out as previously described. Prior to testing, mice were brought to the experimental room for at least 30 min to acclimatize to experimental room conditions. […] Each arm entry was recorded with those entries being counted where the mouse completely placed its hind paws in the chosen arm. […] Results were calculated as the percentage of the ratio of actual detected alternations to possible alternations (defined as the number of total arm entries minus 2). […]

[2] = biological target: T1, Human 5-lipoxygenase (Homo sapiens, UniProt P09917); experiment: 5-lipoxygenase enzyme activity, fluorescence measurement; assay type: biochemical
T1 construct: host or cells: Sf9 cells
T1 sequence (P09917 1-674): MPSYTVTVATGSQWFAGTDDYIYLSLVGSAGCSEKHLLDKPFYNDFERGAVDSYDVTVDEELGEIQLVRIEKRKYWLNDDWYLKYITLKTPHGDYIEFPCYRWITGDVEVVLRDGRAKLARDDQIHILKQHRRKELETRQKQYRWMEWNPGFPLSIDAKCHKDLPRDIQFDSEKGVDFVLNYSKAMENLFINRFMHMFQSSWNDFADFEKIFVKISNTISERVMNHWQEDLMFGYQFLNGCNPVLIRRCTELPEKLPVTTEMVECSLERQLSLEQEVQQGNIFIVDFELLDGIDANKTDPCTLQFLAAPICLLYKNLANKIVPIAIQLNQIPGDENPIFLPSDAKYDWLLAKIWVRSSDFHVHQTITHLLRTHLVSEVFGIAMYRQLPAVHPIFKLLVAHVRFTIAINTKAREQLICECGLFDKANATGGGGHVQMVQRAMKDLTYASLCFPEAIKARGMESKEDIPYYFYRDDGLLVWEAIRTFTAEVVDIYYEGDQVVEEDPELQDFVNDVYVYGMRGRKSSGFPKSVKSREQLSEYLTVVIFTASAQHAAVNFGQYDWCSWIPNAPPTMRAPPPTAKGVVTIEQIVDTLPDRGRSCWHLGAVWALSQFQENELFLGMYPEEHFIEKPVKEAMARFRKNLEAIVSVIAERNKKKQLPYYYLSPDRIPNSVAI
Description: Human 5-lipoxygenase produced by Sf9 cells was used throughout the experiments. The enzyme was pre-incubated with 10 μM compound according to Example 2 at room temperature, then—after the addition of 25 μM arachidonic acid substrate—the amount of generated rhodamine 123 was determined by fluorescence measurement. Percentage of inhibition rate was calculated by comparison to untreated control reactions.

[3] = system: EPO gene; experiment: Erythropoietin gene expression in hippocampus and cortex of aged animals, chronic treatment, qRT-PCR; assay type: in vivo, mouse; conditions: 18-month-old C57BL/6 female mice, 20 mg/l in drinking water for four months
Description: Twenty-four 18-month-old C57BL/6 female mice (Innovo Ltd., Budapest, Hungary) were divided into two groups randomly: Group 1—untreated control, Group 2—treated with the R-enantiomer according to Example 2, administered in drinking water (20 mg/l) for four months. From both groups, 10-10 mice were sacrificed by CO2 inhalation. […]
To study gene expression, total RNA was extracted from the brain tissues with Accuzol™ Total RNA Extraction Solution (Bioneer, Daejeon, South Korea), according to the manufacturer's protocol. cDNA transcription was carried out with the High Capacity cDNA Reverse Transcription Kit (Life Technologies, Foster City, Calif., USA). Expression of the gene coding for erythropoietin, the EPO gene was determined by qRT-PCR (with HPRT gene serving as a control) with the method and instrument described in Example 33. but here, mouse-specific UPL probes (HPRT: 95, EPO: 16) and primer pairs were applied (mouse HPRT1: 5′-tcctcctcagaccgctttt-3′, mouse HPRT2: 5′-[…]-3′; mouse EPO1: 5′-[…]-3′, mouse EPO2: 5′-cttctgcacaacccatcgt-3′).

inhibition of 5-lipoxygenase enzyme (concentration range in words) [2]: inhibits in micromolar concentration
inhibition at 10 µM ([2]; 10 μM concentration, 25 μM arachidonic acid substrate): 54%
Compound: Cc1ccnc(N[C@H](c2ccc(C(F)(F)F)cc2)c2ccc3cccnc3c2O)n1 [Example 2, 7-[(R)-[(4-Methylpyrimidin-2-yl)amino][4-(trifluoromethyl)phenyl]methyl]quinolin-8-ol]
inhibition of scopolamine-induced short-term memory impairment [1]: inhibited
EPO gene expression in hippocampus and cortex compared to untreated control mice [3]: resulted increased EPO gene activity in cerebral cortex and hippocampus; also recorded: induced both hippocampal and cortical EPO expression
